Test results reported in US11236303B2, “CD34+CD41DIM megakaryocytes progenitors and uses thereof for producing proplatelet-bearing MKs and/or platelets” (INSTITUT NATIONAL DE LA SANTE ET DE LA RECHERCHE MEDICALE …, priority 2015, dated 2022).
Where “and” joins values, the source holds several entries; their conditions need not be identical. Equal values may be shown once. Blank lines part the entries; values can stand above or below the compound they belong to.

Legend:
Type in all cases: cell-based, human
[1] = test system: peripheral blood CD34+ cells; assay: CD34/CD41 expression by flow cytometry in MK differentiation culture
Protocol: (§1) CD34^+ cells were seeded in 48-well plates at a density of 4×10^4 per mL in StemSpan SFEM medium supplemented with 20 ng/mL human LDL and CC220 (1×), a cocktail of cytokines containing SCF, TPO, IL-6 and IL-9 (all from Stemcell Technologies), with or without addition of 1 μM SR1 (Cellagen Technology, San Diego, Calif.) (FIG. 1A). On day 7, the cells were harvested, washed and seeded at 5×10^4/mL in StemSpan SFEM medium containing 30 ng/mL TPO with or without 1 μM SR1 for an additional 7 days. The cultures were incubated at 37° C. under normoxic conditions and 5% CO2. On days 7 and 10 of culture, the cells were counted, their viability was measured by propidium iodide exclusion in an automatic cell counter (ADAM, Digital-Bio, Korea) and the expression of CD34, CD41 and CD42b was analyzed in a Gallios flow cytometer using Kaluza software (Beckman Coulter, Villepinte, France). In some experiments, SR1 was replaced by the AhR agonist FICZ (Enzo life sciences, Villeurbane, France) added at 0.2 μM.
(§2) In a second protocol, CD34^+ cells were cultured in the presence of mesenchymal stromal cells (MSCs) isolated from human bone marrow (Guilloton F et al., Blood. 2012; 119:2556-2567). MSCs were maintained in α-MEM medium supplemented with 10% fetal bovine serum (Invitrogen, Cergy Pontoise, France) and 2 ng/mL recombinant human (rh) FGF2 (Peprotech, Rocky Hill, N.J.). CD34^+ cells were added to a confluent layer of MSCs at a density of 4×10^4/mL in 48-well plates in StemSpan SFEM medium supplemented with 20 ng/mL human LDL and CC220. On day 7, the cells in suspension were harvested, washed and co-cultured at 5×10^4/mL on a new layer of confluent MSCs in StemSpan SFEM medium containing 30 ng/mL TPO for an additional 7 days (FIG. 5A).
Surface Markers. Cells were analyzed by flow cytometry (Gallios, Beckman Coulter, France) after labeling with anti-CD34-PE-Cy7 (Beckman Coulter, Fullerton, Calif.), anti-CD41-Alexa-488 (ALMA.17), anti-CD42c-PE (RAM.1) and anti-CD42d-Alexa-647 (V.1) mAbs for 30 min at 4° C. The cells were then washed and resuspended in PBS containing 7-AAD (1/50). The acquired data were analyzed with Kaluza software.

[2] = test system: peripheral blood CD34+ cells; assay: Quantification of proplatelet-bearing MKs in two-step culture of CD34+ cells
Protocol: as §1
(§3) The percentage of MKs extending proplatelets was determined in the culture wells by phase-contrast microscopy. In each culture, at least 100 MKs were analyzed and images were acquired using a Zeiss Axio Vert.A1 microscope with a 20× objective (Marly-le-Roi, France).

[3] = test system: peripheral blood CD34+ cells; assay: Determination of the number of platelets produced per seeded cell, two-step culture of CD34+ cells
Protocol: as §1
as §2, with “On day 7, the cells in suspension were harvested, washed and co-cultured at 5×10^4/mL on a new layer of confluent MSCs in StemSpan SFEM medium containing 30 ng/mL TPO for an additional 7 days (FIG. 5A).” left out
CD34^+ cells cultured for 7 days in the presence of CC220 (FIGS. 1A and 5A) or CD34/CD41 sorted cells (FIGS. 4A and 6A) were seeded in a medium containing TPO. […] CD41/CD42c double positive events, having the same scattering properties as washed blood platelets, were counted as platelet-like particles and the number of particles per seeded cell, at day 7 or 10 following experiments, was determined.

[4] = test system: CYP1B1; assay: CYP1B1 mRNA expression by qPCR (downstream target of AhR)
Protocol: CD41/61 cells were obtained on day 7 or 10 of culture using the antibody ALMA.17 and magnetic beads (EasySep® “Do-It-Yourself” Selection Kit, StemCell Technologies). Total RNA were extracted using an RNeasy® Mini kit (QIAGEN) following manufacturer's instructions. Quantity and quality of total RNA for all samples were evaluated by measuring OD at 260 nm and concentration was adjusted at 50 ng/ml. The RNA samples were stored at −80° C. until use. qRT-PCR was applied under standard conditions using the SYBR Green Master Mix kit on the ABI Prism 7900 Sequence Detection System (PerkinElmer-Cetus, Courtaboeuf, France). The primers for genes were chosen with the assistance of the Oligo 6.0 program (National Biosciences, Plymouth, Minn.) and have been previously described (Bieche I. et al., Pharmacogenetics and genomics. 2007; 17:731-742).

[5] = test system: peripheral blood CD34+ cells; assay: Two-step MK differentiation culture: level of proliferation (viable cell count)
Protocol: as §1

[6] = test system: CD34+CD41dim cells; assay: Quantification of proplatelet-bearing MKs from sorted CD34+CD41dim cells
Protocol: (§4) The cells recovered on day 10 were incubated with a mixture of Alexa-488-conjugated anti-CD41 (ALMA.17) and PE-Cy7-conjugated anti-CD34 mAbs (BD Biosciences) for 30 min at 4° C. They were then washed in PBS-EDTA and incubated for 30 min in PBS containing 7-AAD (1/50) to select viable cells. The morphologic and sorting gates were determined by FMO (fluorescence minus one) analysis and megakaryocytic precursors were sorted at 500 cells/s according to their CD34/CD41 expression using a FACS Aria II flow cytometer (Becton Dickinson, Mountain View, Calif.) equipped with a 50 μm nozzle and two argon lasers operating at 500 mW and tuned to 488 and 360 nm, respectively (Coherent Radiation, Palo Alto, Calif.). The sorted CD34^+CD41^dim and CD34 CD41^+ cells were then counted and seeded at 4×10^4/mL in 48-well plates in StemSpan medium containing TPO with or without SR1 for 7 days (FIG. 4A).
as §3

[7] = test system: CD34+CD41dim cells; assay: Number of platelet-like elements produced per seeded sorted CD34+CD41dim cell
Protocol: as §4, with “4A). CD34^+ cells cultured for 7 days in the presence of CC220 (FIGS. 1A and 5A) or CD34/CD41 sorted cells (FIGS. 4A and 6A) were seeded in a medium containing TPO. […] CD41/CD42c double positive events, having the same scattering properties as washed blood platelets, were counted as platelet-like particles and the number of particles per seeded cell, at day 7 or 10 following experiments, was determined.” for “4A).”

[8] = SR1-derived CD34+CD41dim cells sorted day 10, 7 days in TPO + SR1 (5 μM)

effect on the MSC-induced decrease in CYP1B1 transcripts ([4]; MSC co-culture with addition of FICZ, day 10): reversed
Structure (SMILES): O=Cc1c2[nH]c3ccccc3c2cc2[nH]c3ccccc3c12 [FICZ]
proportion of CD34+CD41dim cells ([1]; MSC co-culture with addition of FICZ, data not shown): reduced
proplatelet extension of MKs ([2]; SR1 replaced by FICZ (0.2 μM)): dramatic decrease
number of platelet-like elements per cell seeded on day 7 ([3]; day 14, SR1 replaced by 0.2 μM FICZ): 0.20±0.04 platelets/seeded cell

CYP1B1 expression ([4]; day 7 culture, SR1 treated cells, control 579.8±40.8, n=3): 2.5±0.8 arbitrary units
Structure (SMILES): CC(C)n1cnc2c(NCCc3ccc(O)cc3)nc(-c3csc4ccccc34)nc21 [SR1, 4-(2-(2-(benzo[b]thiophen-3-yl)-9-isopropyl-9H-purin-6-ylamino)ethyl)phenol]
fold expansion of the total nucleated cells ([5]; day 7, over input of CD34+ cells on day 0, with SR1, mean±SEM, n=8): 4.2±1.2 fold
increase in number of cells from day 7 to day 10 ([5]; day 7 to day 10, SR1-treated cultures): 2.5 times
decrease in CD34 positivity ([1]; day 7, expansion step with CC220, SR1-treated): 8.3%
CD34+CD41+ cells, % of total population ([1]; day 7, presence of SR1): 68.9±1.8% and 69%
CD34+CD41- cells, % of total population ([1]; day 7, presence of SR1): 22.4±1.5%
CD34-CD41+ cells, % of total population ([1]; day 7, presence of SR1): 3.6±0.3%
CD34+CD41+ cells, % of the cells ([1]; day 10, SR1-treated cultures): 55.1±4.9% and 55%
CD34+CD41dim cells (region R2), % of total cells ([1]; day 10, SR1 treatment, mean±SEM in 8 experiments): 36.8±1.9%
proportion of CD34+ cells ([1]; day 10, after passage in TPO alone, SR1 treatment): 71.6%
CD34-CD41+ cells, % of the cells ([1]; day 10, presence of SR1): 26.7±4.5%
percentage of MKs extending proplatelets ([2]; day 14, 1 μM SR1, CC220 day 0-7 then TPO day 7-14): 34.6±2.1%
number of platelet-like elements per cell seeded on day 7 ([3]; day 14, 1 μM SR1): 20.72±5.19 platelets/seeded cell
increase in number of platelet particles after addition of SR1 versus control ([3]; day 14, per cell seeded on day 7): about 3 fold
percentage of MKs extending proplatelets ([6]; MSC-derived CD34+CD41dim cells sorted day 10, 7 days in TPO + 5 μM SR1, n=4): 49.5±10.5%
percentage of MKs extending proplatelets [6, 8]: 91.0±2.4%
proportion of the MKs produced that are proplatelet-bearing MKs ([6]; from seeded CD34+CD41dim cells, summary statement): About 90%
number of platelet-like elements per seeded cell [7, 8]: 52.1±8.8 platelets/seeded cell and 52.06±8.79 platelets/seeded cell
enhanced production of platelet-like elements with SR1 as compared to without SR1 ([7]; sorted CD34+CD41dim cells, 7 days in TPO): 6.8 fold
